# Legend:
# Bcl-2 = Bcl-2 (Homo sapiens, UniProt P10415); test: Bcl-2 protein binding, fluorescence polarization assay
# Source text: IC50 values were in the submicromolar range as determined by fluorescence polarization assay.
# [1] = system: DU145 prostate cancer cells; test: MTT assay, growth inhibition of prostate cancer cell line DU145; assay type: cell-based; settings: Homo sapiens, DU-145, incubated with DU145 cells for 72 hours
# Description: FIGS. 3A-3C show % inhibition (determined by MTT assay) of disclosed compounds on prostate cancer cell line DU145. Compounds were incubated with DU145 cells for 72 hours, showing strong cell growth inhibition with IC50 of 0.15-0.7 μM.
# Chain of Bcl-2 (P10415 whole entry): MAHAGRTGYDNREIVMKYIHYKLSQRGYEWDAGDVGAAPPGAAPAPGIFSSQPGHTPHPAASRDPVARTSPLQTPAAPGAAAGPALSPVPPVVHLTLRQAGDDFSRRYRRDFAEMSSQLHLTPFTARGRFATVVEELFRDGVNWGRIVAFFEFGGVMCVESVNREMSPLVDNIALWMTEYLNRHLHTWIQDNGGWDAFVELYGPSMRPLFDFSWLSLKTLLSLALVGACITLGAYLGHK
IC50 (Bcl-2),IC50 [1],SMILES
1960 nM,779 nM,CCC(C)C(NC(=O)c1ccc(N)c(OC)c1)C(=O)Nc1ccc(C(=O)NC(CCSC)C(=O)Nc2ccc(C(N)=O)cc2OCC(C)C)cc1OCC(C)C (centres unmarked) [Compound B10]
1540 nM,300 nM,CCC(C)C(NC(=O)c1ccc(NC(=O)C(NC(=O)c2ccc(N)c(OC)c2)C(C)CC)c(OCC(C)C)c1)C(=O)Nc1ccc(C(N)=O)cc1OCc1ccccc1 (centres unmarked) [Compound B9]
1080 nM,120 nM,CC(C)COc1cc(C(=O)NC(CS)C(=O)Nc2ccc(C(=O)NC(Cc3ccccc3)C(=O)Nc3ccc(C(N)=O)cc3OCC(C)C)cc2OCC(C)C)ccc1N (centres unmarked) [Compound B11]
599 nM,702 nM,COc1cc(C(=O)NC(Cc2ccc(O)cc2)C(=O)Nc2ccc(C(=O)NC(CCSC)C(=O)Nc3ccc(C(N)=O)cc3OCc3ccccc3)cc2OCC(C)C)ccc1N (centres unmarked) [Compound B12]
